Laboratory results reported in patent US20220143231A1, “MACROCYCLIC COMPOUNDS AND METHODS OF USE THEREOF” (Janssen Biotech, Inc., priority 2020, published 2022).

Test: Chelation test with La^3+ by HPLC
Assay type: physicochemical
Conditions: FIGS. 1A-1B

## CC(C)CCC(c1cccc(C(=O)O)n1)N1CCOCCOCCN(Cc2cccc(C(=O)O)n2)CCOCCOCC1 (centres unmarked) [TOPA-[C7]-isopentyl, 6-((16-(1-(6-carboxypyridin-2-yl)-4-methylpentyl)-1,4,10,13-tetraoxa-7,16-diazacyclooctadecan-7-yl)methyl)picolinic acid]
  chelation of La^3+ (shift in HPLC retention time after mixing): rapid chelation

## O=C(O)c1cccc(CN2CCOCCOCCN(C(c3ccccc3)c3cccc(C(=O)O)n3)CCOCCOCC2)n1 (centres unmarked) [TOPA-[C7]-phenyl, 6-((16-((6-carboxypyridin-2-yl)(phenyl)methyl)-1,4,10,13-tetraoxa-7,16-diazacyclooctadecan-7-yl)methyl)picolinic acid]
  chelation of La^3+ (shift in HPLC retention time after mixing): rapid chelation
